This is an account of results in patent US20040259833A1 (priority 1999, published 2004).

Read-outs that look alike come from different tables or passages of the source.

The subject of assay [1] is bacterial cells expressing an adenine DNA methyltransferase. The format is cell-based.
The next assay has as its target dam methylase (E. coli) (Escherichia coli, UniProt P0AEE8). Type of assay: biochemical. The note with it: at 100 μM.
For assay [2], the target named is dcm methyltransferase (HhaI) (Haemophilus parahaemolyticus, UniProt P05102). The format is biochemical, Hemophilus hemolyticus. The note with it: at 500 μM.
Sequence of dcm methyltransferase (HhaI) (P05102 whole entry): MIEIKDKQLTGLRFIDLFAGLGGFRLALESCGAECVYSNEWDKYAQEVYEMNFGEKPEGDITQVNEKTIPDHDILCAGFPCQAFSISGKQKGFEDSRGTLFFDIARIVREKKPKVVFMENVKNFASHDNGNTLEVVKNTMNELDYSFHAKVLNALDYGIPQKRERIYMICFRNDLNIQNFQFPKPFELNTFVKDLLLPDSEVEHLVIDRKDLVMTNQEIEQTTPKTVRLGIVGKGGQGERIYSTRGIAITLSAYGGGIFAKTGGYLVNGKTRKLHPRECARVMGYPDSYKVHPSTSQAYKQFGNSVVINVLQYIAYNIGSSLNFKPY
For another assay, the system named is Caulobacter cresentus. Put plainly: microbe, parasite or virus in culture. The format is cell-based.
The next assay relates to Helicobacter pylori. Type of assay: cell-based. The note with it: read-out: IC50, cell growth inhibition.
Assay [3] deals with Agrobacterium tumefaciens. Type of assay: cell-based. The note with it: read-out: IC50, cell growth inhibition.
A further assay relates to Bacillus subtilis. Put plainly: microbe, parasite or virus in culture. Type of assay: cell-based.
Assay [4] has as its target adenine DNA methyltransferase (Caulobacter vibrioides (Caulobacter crescentus), UniProt P0CAW2). Type of assay: biochemical.
Setting [5] is: read-out: IC50, cell growth inhibition.
Setting [6] is: Caulobacter, read-out: IC50, Caulobacter cresentus.
Where [7] appears, read: Bacillus subtilis, read-out: IC50, Bacillus subtilis.

Sequence of dam methylase (E. coli) (P0AEE8 whole entry): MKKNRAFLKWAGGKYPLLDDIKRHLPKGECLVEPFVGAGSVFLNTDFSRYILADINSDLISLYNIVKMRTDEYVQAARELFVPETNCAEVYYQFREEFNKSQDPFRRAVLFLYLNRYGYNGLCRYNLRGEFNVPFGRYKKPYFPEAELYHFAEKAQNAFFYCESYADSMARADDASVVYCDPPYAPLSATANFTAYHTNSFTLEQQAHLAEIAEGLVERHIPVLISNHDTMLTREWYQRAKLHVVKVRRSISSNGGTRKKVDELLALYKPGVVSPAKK
Sequence of adenine DNA methyltransferase (P0CAW2 whole entry): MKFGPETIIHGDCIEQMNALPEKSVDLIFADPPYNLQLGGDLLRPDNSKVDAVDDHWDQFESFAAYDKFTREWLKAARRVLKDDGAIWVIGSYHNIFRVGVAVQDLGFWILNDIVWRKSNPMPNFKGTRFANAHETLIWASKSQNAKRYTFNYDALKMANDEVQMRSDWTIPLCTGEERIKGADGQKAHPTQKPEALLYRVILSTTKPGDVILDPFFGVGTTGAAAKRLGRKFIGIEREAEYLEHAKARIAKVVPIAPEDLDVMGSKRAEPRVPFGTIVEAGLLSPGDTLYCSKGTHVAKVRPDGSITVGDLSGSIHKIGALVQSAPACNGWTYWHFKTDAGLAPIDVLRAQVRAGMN

As for `c1ccc(B(OCCNc2ncnc3[nH]cnc23)c2ccccc2)cc1`, in assay [1], the “concentration that inhibits cell growth” value was less than 50 µM.
One may read the IC50 as the point on the concentration scale where inhibition reaches its midpoint. Consider “6-N-(diphenylborinic ester)-ethyl-9-(2-(2-(2-hydroxyethoxy)ethoxy)ethyl)-adenine [Compound 3d]”, for which, on dam methylase (E. coli), the “inhibition of dam methylase (E. coli)” value was “Complete inhibition”. The “inhibition of dcm methyltransferase (HhaI)” value (“inhibition … (HhaI)” below) in assay [2] is reported as “No inhibition at all”. The IC50 with Caulobacter cresentus (setting [5]) is less than 25 µM; in the assay with Helicobacter pylori, 25 to 100 µM; in assay [3], less than 25 µM; in the assay with Bacillus subtilis (setting [5]), 10 to 50 µM.
For “6-N-(diphenylborinic ester)-ethyl-9-(2-(4-morpholinyl)-ethyl)-adenine [Compound 3b]”, the “inhibition of dam methylase (E. coli)” value on dam methylase (E. coli) was “Complete inhibition”. The “inhibition … (HhaI)” value in assay [2] was “No inhibition at all”. Moreover, the concentration for half-maximal inhibition (IC50) with Caulobacter cresentus (setting [5]) was less than 25 µM; with Helicobacter pylori, less than 25 µM; in assay [3] it was 25 µM; with Bacillus subtilis (setting [5]), 1 to 10 µM.
As for “6-N-(diphenylborinic ester)-ethyl-9-(3-(N-phthaloyl)-aminopropyl)-adenine [Compound 3c]”, at dam methylase (E. coli), the “inhibition of dam methylase (E. coli)” value is given as “Complete inhibition”. In addition, the “inhibition … (HhaI)” value in assay [2] is reported as “No inhibition at all”. Besides, the IC50 in the assay on Caulobacter cresentus (setting [5]) is less than 25 µM; in the assay on Helicobacter pylori, 25 to 100 µM; in assay [3], 25 µM; in the assay on Bacillus subtilis (setting [5]), 1 to 10 µM.
Consider “6-N-(diphenylborinic ester)-ethyl-9-(ethyl-2-acrylate)-methyl-adenine [Compound 3e]”, for which the “inhibition of dam methylase (E. coli)” value on dam methylase (E. coli) was “Complete inhibition”. For the same molecule, the “inhibition … (HhaI)” value in assay [2] is “No inhibition at all”. Besides, the half-inhibitory concentration (IC50) in the assay on Caulobacter cresentus (setting [5]) is less than 25 µM; with Helicobacter pylori, 25 µM; in assay [3], less than 25 µM.
As to “6-N-(diphenylborinic ester)-ethyl-adenine [Compound 3a]”, the “inhibition of dam methylase (E. coli)” value on dam methylase (E. coli) is on record as “Complete inhibition”. In assay [2], the “inhibition … (HhaI)” value is reported as “No inhibition at all”. In addition, the 50% inhibitory concentration (IC50) was less than 25 µM in the assay on Caulobacter cresentus (setting [5]), less than 25 µM with Helicobacter pylori, more than 100 µM in assay [3] and 10 to 50 µM with Bacillus subtilis (setting [5]).
As to `Fc1ccc([B-]2(c3ccc(F)cc3)Oc3cccc4ccc[n+]2c34)cc1` [(1), di-(p-fluorophenyl)borinic acid 8-hydroxyquiniline ester], the IC50 was found to be 23 µM in the assay with Caulobacter cresentus (setting [6]) and 14 µM in the assay with Bacillus subtilis (setting [7]).
The like results for `Clc1ccc([B-]2(c3ccc(Cl)cc3)Oc3cccc4ccc[n+]2c34)cc1` [(2), di-(p-chlorophenyl)borinic acid 8-hydroxyquiniline ester] were, in that order, 16 µM and 7 µM.
Take `c1ccc([B-]2(c3ccccc3)Oc3cccc4ccc[n+]2c34)cc1` [(3), diphenylborinic acid 8-hydroxyquiniline ester]: in the assay on Caulobacter cresentus (setting [6]), the 50% inhibitory concentration (IC50) was more than 100 µM.
With `Fc1ccc([B-]2(c3ccc(F)cc3)[NH2+]CCO2)cc1` [(4), di-(p-fluorophenyl)borinic acid ethanolamine ester], the IC50 in the assay on Caulobacter cresentus (setting [6]) is 85 µM; with Bacillus subtilis (setting [7]) it was 34 µM.
Take `Clc1ccc([B-]2(c3ccc(Cl)cc3)[NH2+]CCO2)cc1` [(5), di-(p-chlorophenyl)borinic acid ethanolamine ester]: the IC50 in the assay on Caulobacter cresentus (setting [6]) came out at 17 µM; in the assay with Bacillus subtilis (setting [7]), 32 µM.
Take `NCCNc1ncnc2[nH]cnc12` [compound (8)]: in assay [4], the inhibitory activity entry was “relatively low (mM range)”.
